The subject of this assay is subject on metformin (type 2 diabetes). Put plainly: Blood glucose response after a standard meal under three treatment regimens (Example 1). The class given is in vivo, human. As to conditions: control regimen: metformin 500 mg with the standard meal, no pre-meal drink; after overnight fasting. The procedure:
This example compares the blood glucose response in a subject on a dosage of metformin of 500 mg (immediate release dosage) taken twice per day using three different treatment regimens after overnight fasting on separate dates.
The three treatment regimens were as follows: • 1. Regimen in accordance with the invention in which a dose of 500 mg mg of metformin as a (immediate release) tablet 30 minutes before a standard meal followed by a standard drink 15 minutes before the standard meal. Blood glucose levels with time are shown in plot 1 of FIG. 1. • 2. Control Regimen in which the metformin medication was administered with the standard meal without the pre-meal drink. Blood glucose levels with time are shown in plot 2 of FIG. 1. • 3. Comparison regimen in which the standard drink was administered 15 minutes before a meal and the metformin medication was administered with the standard meal. Blood glucose levels with time are shown in plot 3 of FIG. 1.
The standard pre-meal drink used in Example 1 was formed of the following composition: • 20 g WPC-80 • 5 g guar gum • 150 ml water
The drink was prepared by mixing the powder with water according to the following procedure: • 20 g of WPC80 (whey protein concentrate) and 5 g of guar gum were mixed together as a powder. […] The lid was removed ready for the participant to consume immediately. […]

On to `CN(C)C(=N)N=C(N)N` [metformin, Metformin], for which the “post-prandial blood glucose with time (FIG. 1, Plot 2)” value was “significant rise in post-prandial glucose for a period of over 60 minutes”.

For the origin of these results see patent US20160287515A1, “REGIMEN AND METHOD FOR TREATMENT OF TYPE 2 DIABETES” (Omniblend Innovation Pty Ltd, priority 2013, published 2016).
